For one series, the system named is HSC-4. Kind of series: Cytotoxicity against human HSC4 cells after 48 hrs by MTT assay. It counts as functional. As to conditions: HSC-4, 48 h.
Series [1] is described as follows: Cytotoxicity against human HGF cells after 48 hrs by MTT assay. In kind it is cell-based.
Another series concerns HL-60. Kind of series: Cytotoxicity against human HL60 cells after 48 hrs by MTT assay. In kind it is functional. As to conditions: HL-60, 48 h. In general terms: Formazan colour is commonly taken as a measure of viable cells.
In another series the test system is HSC-3. Kind of series: Cytotoxicity against human HSC3 cells after 48 hrs by MTT assay. It counts as functional. The conditions noted are these: HSC-3, 48 h.
For another series, the system named is HSC-2. Kind of series: Cytotoxicity against human HSC2 cells after 48 hrs by MTT assay. In kind it is functional. As to conditions: HSC-2, 48 h.
Series [2] can be described thus: Cytotoxicity against human HPLF cells after 48 hrs by MTT assay. It counts as cell-based.
Series [3] is described as follows: Cytotoxicity against human HPC cells after 48 hrs by MTT assay. It counts as cell-based.

The values below come from ChEMBL document CHEMBL1157132, “Hydrolyzable tannins of tamaricaceous plants. III. Hellinoyl- and macrocyclic-type ellagitannins from Tamarix nilotica” (J Nat Prod, 2010).

With `O=C(O)c1cc(O)c(O)c(Oc2c(C(=O)O[C@@H]3[C@@H](OC(=O)c4cc(O)c(O)c(O)c4O)[C@@H]4OC(=O)c5cc(O)c(O)c(O)c5-c5c(cc(O)c(O)c5O)C(=O)OC[C@H]4O[C@H]3O)cc(O)c(O)c2O)c1` [REMURIN B], the CC50 (in general, the concentration that lowers cell viability or growth by half) in the series on HSC-4 came out at 60 µM; in the series with HL-60, 41.7 µM; in the series with HSC-3 it was 63.3 µM; in the series with HSC-2 it was 32.3 µM. The cytotoxic concentration (CC50) at 48 h in series [1] amounted to 337 µM; in series [2] it was 375 µM; in series [3] it was 255 µM.

On to `O=C1O[C@@H]2O[C@@H]3COC(=O)c4cc(O)c(O)c(O)c4-c4c(cc(O)c(O)c4O)C(=O)O[C@H]3[C@H](OC(=O)c3cc(O)c(O)c(O)c3)[C@H]2OC(=O)c2cc(Oc3c(C(=O)O)cc(O)c(O)c3O)c(O)c(O)c2Oc2cc1cc(O)c2O` [NILOTININ M4], for which the CC50 in the series with HSC-4 came out at 62 µM; in the series on HL-60 it was 30.6 µM; in the series with HSC-3, 57 µM; with HSC-2, 35 µM. In addition, the CC50 at 48 h in series [1] is 325 µM; in series [2], 361 µM; in series [3] it was 263 µM.

Consider `O=C(O[C@@H]1O[C@@H]2COC(=O)c3cc(O)c(O)c(O)c3-c3c(cc(O)c(O)c3O)C(=O)O[C@H]2[C@H](OC(=O)c2cc(O)c(O)c(O)c2)[C@H]1OC(=O)c1cc(O)c(O)c(O)c1Oc1cc2c(c(O)c1O)Oc1cc(cc(O)c1O)C(=O)O[C@@H]1O[C@@H]3COC(=O)c4cc(O)c(O)c(O)c4-c4c(cc(O)c(O)c4O)C(=O)O[C@H]3[C@H](OC(=O)c3cc(O)c(O)c(O)c3)[C@H]1OC2=O)c1cc(O)c(O)c(O)c1` [HIRTELLIN B], for which the CC50 is 74 µM with HSC-4, 8.71 µM in the series on HL-60, 99.3 µM in the series on HSC-3 and 91.7 µM with HSC-2. Also, the CC50 at 48 h in series [1] was 177 µM; in series [2], 293 µM; in series [3], 78.5 µM.

Turning to `O=C(O[C@@H]1O[C@@H]2COC(=O)c3cc(O)c(O)c(O)c3-c3c(cc(O)c(O)c3O)C(=O)O[C@H]2[C@H](OC(=O)c2cc(O)c(O)c(O)c2)[C@H]1OC(=O)c1cc(O)c(O)c(O)c1Oc1cc2c(c(O)c1O)Oc1cc(cc(O)c1O)C(=O)O[C@@H]1O[C@H](CO)[C@@H](O)[C@H](OC(=O)c3cc(O)c(O)c(O)c3)[C@H]1OC2=O)c1cc(O)c(O)c(O)c1` [NILOTININ D8], the CC50 is 54.3 µM with HSC-4, 22.9 µM with HL-60, 48.3 µM with HSC-3 and 32.3 µM in the series with HSC-2. Moreover, the CC50 at 48 h in series [1] worked out at 318 µM; in series [2], 358 µM; in series [3], 278 µM.

Take `O=C1O[C@@H]2O[C@@H]3COC(=O)c4cc(O)c(O)c(O)c4-c4c(cc(O)c(O)c4O)C(=O)O[C@H]3[C@H](OC(=O)c3cc(O)c(O)c(O)c3)[C@H]2OC(=O)c2cc(Oc3c(C(=O)O[C@@H]4[C@@H](OC(=O)c5cc(O)c(O)c(O)c5)[C@@H]5OC(=O)c6cc(O)c(O)c(O)c6-c6c(cc(O)c(O)c6O)C(=O)OC[C@H]5O[C@H]4O)cc(O)c(O)c3O)c(O)c(O)c2Oc2cc1cc(O)c2O` [TAMARIXININ A]: the cytotoxic concentration (CC50) was found to be 59.3 µM in the series with HSC-4, 30.8 µM with HL-60, 54.3 µM in the series on HSC-3 and 29.3 µM in the series on HSC-2. The CC50 at 48 h was 274 µM in series [1], 353 µM in series [2] and 199 µM in series [3].

Consider `O=C(O)c1cc(O)c(O)c(Oc2c(C(=O)O[C@H]3[C@H](OC(=O)c4cc(O)c(O)c(O)c4)O[C@@H]4COC(=O)c5cc(O)c(O)c(O)c5-c5c(cc(O)c(O)c5O)C(=O)O[C@H]4[C@@H]3OC(=O)c3cc(O)c(O)c(O)c3O)cc(O)c(O)c2O)c1` [REMURIN A], for which the 50% cytotoxic concentration (CC50) with HSC-4 turned out to be 48 µM; in the series on HL-60, 18.4 µM; in the series with HSC-3 it was 51 µM; with HSC-2, 31.3 µM. Besides, the CC50 at 48 h in series [1] came out at 218 µM; in series [2], 373 µM; in series [3], 170 µM.
